Here are results for 15 compounds from ChEMBL document CHEMBL1817560, “Selectivity of kinase inhibitor fragments” (J Med Chem, 2011).

Assay [1] has as its target T1, Phosphatidylinositol 4,5-bisphosphate 3-kinase catalytic subunit delta isoform (Homo sapiens) (UniProt O00329).
T1 sequence (whole entry): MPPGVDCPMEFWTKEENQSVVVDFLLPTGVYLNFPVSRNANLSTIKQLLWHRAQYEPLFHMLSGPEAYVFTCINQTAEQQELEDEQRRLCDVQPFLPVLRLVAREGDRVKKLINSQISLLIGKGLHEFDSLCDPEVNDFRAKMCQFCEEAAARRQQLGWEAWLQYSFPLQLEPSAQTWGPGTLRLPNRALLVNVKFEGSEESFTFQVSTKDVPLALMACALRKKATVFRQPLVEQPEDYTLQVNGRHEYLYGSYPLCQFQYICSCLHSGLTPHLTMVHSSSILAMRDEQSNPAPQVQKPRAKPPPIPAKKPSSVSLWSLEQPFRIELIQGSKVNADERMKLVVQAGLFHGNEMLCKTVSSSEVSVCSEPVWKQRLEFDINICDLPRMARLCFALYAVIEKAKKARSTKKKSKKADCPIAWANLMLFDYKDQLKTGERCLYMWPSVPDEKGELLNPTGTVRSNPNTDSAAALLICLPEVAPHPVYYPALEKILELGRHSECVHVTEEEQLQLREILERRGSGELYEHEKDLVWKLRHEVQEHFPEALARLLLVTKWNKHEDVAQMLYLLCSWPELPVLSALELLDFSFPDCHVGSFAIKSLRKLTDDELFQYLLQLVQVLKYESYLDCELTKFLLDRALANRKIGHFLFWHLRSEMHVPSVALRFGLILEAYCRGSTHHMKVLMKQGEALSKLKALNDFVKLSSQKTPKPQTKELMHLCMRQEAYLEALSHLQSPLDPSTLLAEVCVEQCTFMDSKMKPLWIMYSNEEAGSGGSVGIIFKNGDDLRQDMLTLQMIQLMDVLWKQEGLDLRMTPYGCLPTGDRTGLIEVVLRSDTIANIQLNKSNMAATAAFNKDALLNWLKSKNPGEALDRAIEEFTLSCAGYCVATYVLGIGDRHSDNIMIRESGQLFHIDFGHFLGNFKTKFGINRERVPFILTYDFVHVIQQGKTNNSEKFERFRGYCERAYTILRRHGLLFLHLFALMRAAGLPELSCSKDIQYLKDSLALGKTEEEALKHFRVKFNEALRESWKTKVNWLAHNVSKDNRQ
In words: Inhibition of PI3Kdelta expressed in Escherichia coli or baculovirus-infected insect cells using gamma-[33P]ATP at 400 uM by scintillation proximity assay. For orientation: Scintillation proximity formats need no separation of bound from free tracer.

Assay [2] addresses Epidermal growth factor receptor (Homo sapiens) (UniProt P00533). The assay is described as follows: Inhibition of EGFR expressed in Escherichia coli or baculovirus-infected insect cells at 400 uM by TR-FRET assay. In general terms: In TR-FRET formats the signal depends on donor and acceptor labels being close together.
Assay [3] addresses Phosphatidylinositol 4,5-bisphosphate 3-kinase catalytic subunit alpha isoform (Homo sapiens) (UniProt P42336). The assay is described as follows: Inhibition of PI3Kalpha expressed in Escherichia coli or baculovirus-infected insect cells using gamma-[33P]ATP at 400 uM by scintillation proximity assay.
Assay [4] addresses Mitogen-activated protein kinase 8 (Homo sapiens, UniProt P45983). The assay is described as follows: Inhibition of JNK1 expressed in Escherichia coli or baculovirus-infected insect cells at 667 uM by TR-FRET assay.
For assay [5], the target named is T2, Aurora kinase A (Homo sapiens) (UniProt O14965).
T2 sequence (whole entry): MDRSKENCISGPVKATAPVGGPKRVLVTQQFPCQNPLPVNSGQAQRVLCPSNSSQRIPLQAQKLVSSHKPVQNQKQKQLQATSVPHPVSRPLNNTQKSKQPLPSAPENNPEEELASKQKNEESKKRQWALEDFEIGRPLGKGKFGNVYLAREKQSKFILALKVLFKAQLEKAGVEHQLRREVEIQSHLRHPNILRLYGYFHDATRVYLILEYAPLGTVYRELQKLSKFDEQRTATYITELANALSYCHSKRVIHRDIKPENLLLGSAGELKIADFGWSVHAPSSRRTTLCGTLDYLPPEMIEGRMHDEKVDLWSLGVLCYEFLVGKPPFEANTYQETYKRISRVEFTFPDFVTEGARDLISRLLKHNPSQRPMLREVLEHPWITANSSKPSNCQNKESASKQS
The assay is described as follows: Inhibition of AurA expressed in Escherichia coli or baculovirus-infected insect cells at 400 uM by IMAP assay.

The target of assay [6] is Receptor-interacting serine/threonine-protein kinase 2 (Homo sapiens) (UniProt O43353). The assay is described as follows: Inhibition of RIP2 expressed in Escherichia coli or baculovirus-infected insect cells at 400 uM by fluorescence polarization assay. A general note: In fluorescence polarisation assays a small probe gives low polarisation when free and higher when bound to something large.

In assay [7] the target is Phosphatidylinositol 4,5-bisphosphate 3-kinase catalytic subunit gamma isoform (Homo sapiens) (UniProt P48736). The assay is described as follows: Inhibition of PI3Kgamma expressed in Escherichia coli or baculovirus-infected insect cells at 667 uM by fluorescence polarization assay.
Sequence of Phosphatidylinositol 4,5-bisphosphate 3-kinase catalytic subunit gamma isoform (Homo sapiens) (P48736 whole entry, looked up, canonical isoform): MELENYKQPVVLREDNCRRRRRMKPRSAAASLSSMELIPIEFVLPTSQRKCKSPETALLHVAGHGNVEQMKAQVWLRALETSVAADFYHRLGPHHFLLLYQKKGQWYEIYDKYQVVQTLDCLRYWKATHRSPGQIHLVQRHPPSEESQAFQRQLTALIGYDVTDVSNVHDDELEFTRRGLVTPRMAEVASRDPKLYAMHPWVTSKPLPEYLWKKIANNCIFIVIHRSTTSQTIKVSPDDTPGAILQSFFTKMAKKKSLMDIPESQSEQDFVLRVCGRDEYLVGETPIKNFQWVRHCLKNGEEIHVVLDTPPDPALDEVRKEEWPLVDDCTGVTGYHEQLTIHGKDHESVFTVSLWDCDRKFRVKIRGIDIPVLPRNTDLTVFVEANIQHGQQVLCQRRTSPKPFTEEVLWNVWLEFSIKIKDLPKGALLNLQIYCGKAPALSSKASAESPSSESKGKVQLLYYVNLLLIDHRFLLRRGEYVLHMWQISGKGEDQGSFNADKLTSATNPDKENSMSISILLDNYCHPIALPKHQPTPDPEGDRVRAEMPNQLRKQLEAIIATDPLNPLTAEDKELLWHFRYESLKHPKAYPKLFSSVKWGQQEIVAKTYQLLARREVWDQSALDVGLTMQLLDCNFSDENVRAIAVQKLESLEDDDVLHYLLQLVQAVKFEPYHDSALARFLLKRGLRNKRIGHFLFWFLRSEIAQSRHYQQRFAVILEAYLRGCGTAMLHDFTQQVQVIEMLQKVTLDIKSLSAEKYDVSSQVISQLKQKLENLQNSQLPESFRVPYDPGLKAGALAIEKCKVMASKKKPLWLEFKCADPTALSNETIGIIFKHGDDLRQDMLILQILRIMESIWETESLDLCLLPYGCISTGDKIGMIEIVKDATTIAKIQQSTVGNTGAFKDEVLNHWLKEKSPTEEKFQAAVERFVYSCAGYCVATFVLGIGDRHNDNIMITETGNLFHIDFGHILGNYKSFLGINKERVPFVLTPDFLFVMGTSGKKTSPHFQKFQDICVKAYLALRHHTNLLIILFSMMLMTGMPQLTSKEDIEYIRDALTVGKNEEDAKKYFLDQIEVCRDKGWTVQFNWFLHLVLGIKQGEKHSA
Assay [8] addresses Aurora kinase B (Homo sapiens) (UniProt Q96GD4). The assay is described as follows: Inhibition of AurB expressed in Escherichia coli or baculovirus-infected insect cells at 400 uM by IMAP assay.
The target of assay [9] is Receptor tyrosine-protein kinase erbB-2 (Homo sapiens) (UniProt P04626). The assay is described as follows: Inhibition of ErbB2 expressed in Escherichia coli or baculovirus-infected insect cells at 400 uM by TR-FRET assay.
Sequence of Receptor tyrosine-protein kinase erbB-2 (Homo sapiens) (P04626 whole entry): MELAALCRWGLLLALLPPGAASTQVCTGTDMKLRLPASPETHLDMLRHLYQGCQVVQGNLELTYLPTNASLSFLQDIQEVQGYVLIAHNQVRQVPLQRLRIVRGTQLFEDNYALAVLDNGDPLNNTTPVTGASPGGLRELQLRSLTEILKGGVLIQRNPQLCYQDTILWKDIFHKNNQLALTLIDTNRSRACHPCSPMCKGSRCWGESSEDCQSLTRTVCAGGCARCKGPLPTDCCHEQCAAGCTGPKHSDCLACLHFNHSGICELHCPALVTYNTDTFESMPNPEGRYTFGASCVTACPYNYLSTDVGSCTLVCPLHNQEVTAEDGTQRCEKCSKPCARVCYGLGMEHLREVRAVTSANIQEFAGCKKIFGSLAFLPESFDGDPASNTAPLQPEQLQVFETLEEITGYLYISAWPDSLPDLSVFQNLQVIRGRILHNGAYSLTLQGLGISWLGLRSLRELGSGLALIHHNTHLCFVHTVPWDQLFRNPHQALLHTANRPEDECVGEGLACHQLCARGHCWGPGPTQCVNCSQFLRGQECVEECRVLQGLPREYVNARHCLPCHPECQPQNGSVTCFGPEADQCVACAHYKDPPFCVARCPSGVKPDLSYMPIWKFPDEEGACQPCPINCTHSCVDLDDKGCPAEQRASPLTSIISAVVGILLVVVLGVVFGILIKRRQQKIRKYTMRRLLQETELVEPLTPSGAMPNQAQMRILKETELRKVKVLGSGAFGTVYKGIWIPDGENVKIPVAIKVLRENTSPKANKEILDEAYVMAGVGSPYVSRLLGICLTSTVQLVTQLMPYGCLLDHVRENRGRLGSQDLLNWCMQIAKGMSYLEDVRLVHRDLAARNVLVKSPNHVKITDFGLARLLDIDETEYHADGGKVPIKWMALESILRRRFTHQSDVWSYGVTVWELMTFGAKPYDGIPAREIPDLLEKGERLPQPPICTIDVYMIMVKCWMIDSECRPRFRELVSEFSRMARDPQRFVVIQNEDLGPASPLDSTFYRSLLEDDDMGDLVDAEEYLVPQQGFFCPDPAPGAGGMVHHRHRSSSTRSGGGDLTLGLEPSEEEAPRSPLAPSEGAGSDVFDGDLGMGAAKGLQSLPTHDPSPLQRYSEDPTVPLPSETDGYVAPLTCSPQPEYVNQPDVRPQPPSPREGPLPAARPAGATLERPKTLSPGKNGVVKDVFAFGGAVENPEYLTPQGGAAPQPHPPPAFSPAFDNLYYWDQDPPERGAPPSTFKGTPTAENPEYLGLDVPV
Assay [10] deals with Serine/threonine-protein kinase B-raf (Homo sapiens) (UniProt P15056). In words: Inhibition of B-Raf expressed in Escherichia coli or baculovirus-infected insect cells using ATP as substrate at 400 uM by fluorescence polarization assay.
Assay [11] concerns the target Serine/threonine-protein kinase PAK 1 (Homo sapiens) (UniProt Q13153). The assay is described as follows: Inhibition of PAK1 expressed in Escherichia coli or baculovirus-infected insect cells at 400 uM by IMAP assay.

Sequence of Epidermal growth factor receptor (Homo sapiens) (P00533 whole entry, canonical isoform): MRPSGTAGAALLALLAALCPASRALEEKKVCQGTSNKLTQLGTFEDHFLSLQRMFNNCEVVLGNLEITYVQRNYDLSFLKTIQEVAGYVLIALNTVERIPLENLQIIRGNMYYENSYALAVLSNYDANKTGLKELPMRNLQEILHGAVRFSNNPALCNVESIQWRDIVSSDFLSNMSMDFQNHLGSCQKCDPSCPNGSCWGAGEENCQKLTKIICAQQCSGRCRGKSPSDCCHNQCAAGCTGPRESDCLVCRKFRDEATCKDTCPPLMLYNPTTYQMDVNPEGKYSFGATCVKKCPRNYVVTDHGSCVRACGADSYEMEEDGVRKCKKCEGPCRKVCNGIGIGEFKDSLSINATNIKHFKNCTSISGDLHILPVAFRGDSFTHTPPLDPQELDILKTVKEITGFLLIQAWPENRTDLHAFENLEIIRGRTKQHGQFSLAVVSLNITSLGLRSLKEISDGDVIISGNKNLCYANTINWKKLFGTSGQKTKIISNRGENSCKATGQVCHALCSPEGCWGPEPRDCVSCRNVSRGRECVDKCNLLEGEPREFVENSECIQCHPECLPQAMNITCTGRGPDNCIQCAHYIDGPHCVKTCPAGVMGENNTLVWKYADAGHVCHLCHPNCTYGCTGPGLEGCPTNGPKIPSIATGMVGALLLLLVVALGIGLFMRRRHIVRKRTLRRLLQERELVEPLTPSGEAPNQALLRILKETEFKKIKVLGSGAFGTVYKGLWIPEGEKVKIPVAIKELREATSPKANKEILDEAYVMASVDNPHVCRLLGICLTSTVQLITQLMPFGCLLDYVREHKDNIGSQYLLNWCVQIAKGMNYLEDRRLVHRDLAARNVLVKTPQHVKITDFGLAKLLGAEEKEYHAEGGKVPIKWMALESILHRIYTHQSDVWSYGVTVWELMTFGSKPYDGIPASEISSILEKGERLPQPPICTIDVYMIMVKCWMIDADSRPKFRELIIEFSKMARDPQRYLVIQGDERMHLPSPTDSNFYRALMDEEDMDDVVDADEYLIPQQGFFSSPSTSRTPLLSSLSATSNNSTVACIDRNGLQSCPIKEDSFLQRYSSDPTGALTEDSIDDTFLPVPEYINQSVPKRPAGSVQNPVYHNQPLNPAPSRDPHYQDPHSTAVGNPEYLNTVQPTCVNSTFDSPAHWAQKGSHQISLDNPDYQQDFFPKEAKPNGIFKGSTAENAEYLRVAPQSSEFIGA
Sequence of Mitogen-activated protein kinase 8 (P45983 whole entry): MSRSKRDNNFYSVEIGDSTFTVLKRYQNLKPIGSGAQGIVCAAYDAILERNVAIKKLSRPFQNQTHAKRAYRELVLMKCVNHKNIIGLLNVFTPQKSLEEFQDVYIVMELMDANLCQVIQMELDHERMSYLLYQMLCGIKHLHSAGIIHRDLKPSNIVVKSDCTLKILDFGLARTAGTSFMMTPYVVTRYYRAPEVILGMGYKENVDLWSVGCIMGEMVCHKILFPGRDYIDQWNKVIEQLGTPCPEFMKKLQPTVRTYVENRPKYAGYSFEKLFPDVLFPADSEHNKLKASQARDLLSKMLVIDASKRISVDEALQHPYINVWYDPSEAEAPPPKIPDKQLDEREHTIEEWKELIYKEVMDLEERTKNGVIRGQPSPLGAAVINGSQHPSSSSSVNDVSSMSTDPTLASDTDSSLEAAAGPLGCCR
Sequence of Phosphatidylinositol 4,5-bisphosphate 3-kinase catalytic subunit alpha isoform (Homo sapiens) (P42336 whole entry, canonical isoform): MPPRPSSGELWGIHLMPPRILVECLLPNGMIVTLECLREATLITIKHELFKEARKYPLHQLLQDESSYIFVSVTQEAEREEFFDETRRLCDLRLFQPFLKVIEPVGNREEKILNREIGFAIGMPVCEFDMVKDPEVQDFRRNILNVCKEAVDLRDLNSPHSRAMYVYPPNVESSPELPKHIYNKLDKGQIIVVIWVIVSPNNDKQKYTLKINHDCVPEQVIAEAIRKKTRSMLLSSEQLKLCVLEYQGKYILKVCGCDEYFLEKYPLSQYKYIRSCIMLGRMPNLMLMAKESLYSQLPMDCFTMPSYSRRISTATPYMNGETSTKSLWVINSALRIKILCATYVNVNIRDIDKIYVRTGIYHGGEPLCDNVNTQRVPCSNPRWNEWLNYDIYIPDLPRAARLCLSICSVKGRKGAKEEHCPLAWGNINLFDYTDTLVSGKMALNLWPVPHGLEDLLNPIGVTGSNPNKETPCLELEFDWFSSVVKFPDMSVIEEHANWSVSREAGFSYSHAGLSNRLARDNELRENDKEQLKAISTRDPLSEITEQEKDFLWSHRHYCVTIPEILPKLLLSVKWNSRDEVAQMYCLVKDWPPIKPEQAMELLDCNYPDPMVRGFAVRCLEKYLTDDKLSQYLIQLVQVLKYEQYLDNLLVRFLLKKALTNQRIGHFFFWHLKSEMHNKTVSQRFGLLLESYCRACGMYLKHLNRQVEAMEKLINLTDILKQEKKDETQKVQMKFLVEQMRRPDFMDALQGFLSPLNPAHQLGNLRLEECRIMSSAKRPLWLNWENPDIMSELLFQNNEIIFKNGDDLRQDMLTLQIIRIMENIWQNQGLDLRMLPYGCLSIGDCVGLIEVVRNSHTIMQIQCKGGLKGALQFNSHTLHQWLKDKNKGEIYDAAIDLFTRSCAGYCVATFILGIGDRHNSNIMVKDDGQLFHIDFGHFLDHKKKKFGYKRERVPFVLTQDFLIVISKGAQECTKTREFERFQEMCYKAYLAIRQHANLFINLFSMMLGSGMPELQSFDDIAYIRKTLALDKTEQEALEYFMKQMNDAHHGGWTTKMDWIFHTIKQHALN

For the compound `CC(C)(C)c1cc(NC(=O)Nc2ccccc2)no1`, the inhibition – broadly, how much of the control response was suppressed – in assay [1] turned out to be 41%; in assay [2], 4%; in [3] it was 40%; in [4], 4%; in assay [5], 27%; in assay [6] it was 7%. In addition, the inhibition turned out to be 9% in assay [7], 31% in [8] and 0% in assay [9].
As to `Nc1ncccc1OCc1ccccc1`, the inhibition in [1] was determined as 36%; in assay [10] it was 100%; in [2], 9%; in assay [3], 59%; in assay [4], 18%; in assay [5] it was 40%. For the same compound, the inhibition came out at 94% in [6], 100% in assay [7], 77% in [8] and 21% in [9].
Regarding `Cc1ccc(C(=O)NC2CC2)cc1F`, the inhibition in [1] worked out at 10%; in assay [2], 5%; in assay [3], 16%; in assay [4] it was 16%; in assay [5], 5%; in assay [6], 7%. Besides, the inhibition came out at 13% in assay [7], 15% in assay [8] and 5% in [9].
Turning to `O=C(Nc1ccccc1)Nc1cccc(C(F)(F)F)c1`, the inhibition was determined as 10% in assay [1]; 4% in [2]; 10% in assay [3]; 0% in [4]; 0% in assay [6]; 7% in assay [7]. Also, the inhibition in [8] amounted to 12%; in [9], 0%.
For `c1ccc(Nc2ncccn2)cc1`, the inhibition in [1] was 19%; in assay [10] it was 10%; in assay [2], 0%; in assay [3], 14%; in assay [11], 19%; in assay [4], 74%. Besides, the inhibition stood at 89% in assay [5]; 24% in assay [6]; 16% in assay [7]; 97% in assay [8]; 4% in [9].
Turning to `Cc1ccc(NC(=O)Nc2cc(C(C)(C)C)nn2-c2ccccc2)cc1`, the inhibition in assay [1] stood at 27%; in assay [2], 0%; in [3] it was 27%; in assay [4] it was 2%; in assay [5], 7%; in [6], 0%. Further, the inhibition in assay [7] was found to be 2%; in [8], 0%; in assay [9], 2%.
On to `Cc1ccc(NC(=O)Nc2cccc(C(F)(F)F)c2)cc1`, for which the inhibition came out at 8% in assay [1]; 0% in assay [2]; 4% in [3]; 0% in assay [4]; 7% in assay [5]; 1% in assay [6]. The results for the inhibition in [7], in [8] and in [9] were 0%, 12% and 0%, respectively.
Regarding `Nc1n[nH]c2ncccc12`, the inhibition in assay [1] was 18%; in assay [2] it was 18%; in assay [3], 29%; in assay [4], 20%; in [5] it was 92%; in assay [6], 10%. In addition, the inhibition in assay [7] amounted to 20%; in assay [8] it was 100%; in [9] it was 9%.
On to `O=C(Nc1ccccc1)Nc1ccccc1`, for which the inhibition in [1] came to 11%; in [2], 0%; in assay [3], 11%; in assay [4], 0%; in assay [5], 0%; in assay [6] it was 0%. For the same compound, the inhibition in assay [7] came to 9%; in assay [8], 30%; in assay [9], 2%.
Regarding `c1n[nH]c2c1CCCC2`, the inhibition in assay [1] is 16%; in assay [2] it was 25%; in [3], 24%; in assay [11] it was 0%; in assay [4] it was 13%; in [5], 27%. Besides, the inhibition in assay [6] stood at 2%; in [7], 13%; in [8], 22%; in assay [9], 0%.
`Nc1[nH]nc2ccccc12`: the inhibition in assay [1] was found to be 19%; in assay [2] it was 0%; in assay [3], 22%; in assay [11], 17%; in assay [4], 34%; in assay [5], 84%. Further, the inhibition amounted to 11% in [6], 10% in assay [7], 98% in assay [8] and 1% in assay [9].
For `Nc1[nH]cnc2ncnc1-2`, the inhibition in [1] stood at 68%; in assay [2], 11%; in [3], 45%; in assay [4] it was 33%; in assay [5], 90%; in assay [6], 11%. For the same compound, the values for the inhibition in assay [7], in assay [8] and in [9] were 66%, 99% and 3%, respectively.
For `c1ccc(-c2cnc3nccnn23)cc1`, the inhibition in [1] is 42%; in assay [2] it was 8%; in [3], 46%; in [11] it was 0%; in assay [4] it was 14%; in assay [5] it was 0%. Also, the inhibition stood at 0% in assay [6], 92% in assay [7], 0% in assay [8] and 0% in [9].
`c1ccc(Nc2ccccc2)cc1`: the inhibition in [1] amounted to 7%; in assay [2], 5%; in [3] it was 20%; in [11], 14%; in [4] it was 1%; in [5] it was 0%. Besides, the values for the inhibition in [7] and in assay [9] were 2% and 0%, respectively.
For `Nc1ccc2ncc(-c3ccccc3)n2n1`, the inhibition in [1] stood at 90%; in [2], 36%; in assay [3], 86%; in assay [11], 38%; in assay [4], 83%; in [5], 96%. The inhibition was found to be 69% in assay [6], 70% in [7], 97% in assay [8] and 25% in [9].
